Columns and labels:
Echinochloa oryzicola = assay: Submerged foliar treatment test (Test Example 3); format: in vivo; conditions: water depth 3 cm, cotyledon to 1-leaf stage, wettable powder, active ingredient 10 g/a, 28th day from the treatment
Procedure: (§1) The herbicidal effect was evaluated in terms of herbicidal rate obtained from the following equation: Herbicidal rate (%)=[1−(Weight of weeds above the ground in a treated plot)/(Weight of weeds above the ground in a non-treated plot)]×100
(§2) and was expressed by herbicidal index according to the following criteria.
(§3) Alluvial soil from a paddy field was put in a resin-made vat having an area of 200 cm^2. After fertilization, seeds of Echinochloa oryzicola, Rotala indica and Scirpus juncoides were cast on the soil and uniformly covered with the soil, and water was poured onto the soil to keep a water depth of 3 cm. Then, cultivation was continued in a greenhouse, and when the weeds to be tested reached the cotyledon stage to 1-leaf stage, the wettable powder obtained in Formulation Example 1 was diluted with water and a predetermined amount thereof was added dropwise uniformly to the weeds by means of a pipette to give 10 g of the active ingredient per an are. Thereafter, cultivation was further continued in the greenhouse, and the herbicidal effect was examined on the 28th day from the treatment. The results obtained are shown in Table 9 (the compound numbers in Table 9 correspond to those in Tables 1 to 6).

Rotala indica = assay: Submerged foliar treatment test (Test Example 3); format: in vivo; conditions: water depth 3 cm, cotyledon to 1-leaf stage, wettable powder, active ingredient 10 g/a, 28th day from the treatment
Procedure: as §1, §2, §3

Scirpus juncoides = assay: Submerged foliar treatment test (Test Example 3); format: in vivo; conditions: water depth 3 cm, cotyledon to 1-leaf stage, wettable powder, active ingredient 10 g/a, 28th day from the treatment
Procedure: as §1, §2, §3

| melting point | Structure (SMILES) | Herbicidal effect Echinochloa oryzicola (herbicidal index) (Echinochloa oryzicola) | Herbicidal effect Rotala indica (herbicidal index) (Rotala indica) | Herbicidal effect Scirpus juncoides (herbicidal index) (Scirpus juncoides) |
| --- | --- | --- | --- | --- |
| 40 to 41 °C | Cc1cc2c(-c3cccc(C(F)(F)F)c3)nc(COCC(F)(F)F)nc2s1 [Compound No. 6-17, 6-methyl-2-[(2,2,2-trifluoroethoxy)methyl]-4-[3-(trifluoromethyl)phenyl]thieno[2,3-d]pyrimidine] | 5 (91 to 100) | 5 (91 to 100) | 3 (51 to 70) |
| 121 to 122 °C | Cc1cc2c(-c3cccc(C(F)(F)F)c3)nc(C#N)nc2s1 [Compound No. 6-10, 2-cyano-6-methyl-4-[3-(trifluoromethyl)phenyl]thieno[2,3-d]pyrimidine] | 5 (91 to 100) | 5 (91 to 100) | 4 (71 to 90) |
| 124 to 125 °C | Cc1cc2c(Oc3cccc(C(F)(F)F)c3)nc(OCC(F)(F)F)nc2s1 [Compound No. 6-129, 6-methyl-2-(2,2,2-trifluoroethoxy)-4-[3-(trifluoromethyl)phenoxy]thieno[2,3-d]pyrimidine] | 5 (91 to 100) | 4 (71 to 90) | 2 (31 to 50) |
